Measured values published in US7429582B2, “Dihydro[1,4]oxazino[2,3,4-hi]indazole derivatives as 5-hydroxytryptamine-6 ligands and use thereof in the treatment of attention deficit disorders” (Wyeth, priority 2006, dated 2008).
pKi: −log10 of the molar value. Counter-ions that a name gives are not always drawn.

Biological target: T1, human cloned 5-HT6 receptors (Homo sapiens, UniProt P50406)
T1 construct: expressed in transfected cells; host or cells: Hela cells
Conditions: [3H]-LSD 3.0 nM, 120 minutes at room temperature, Hela cell membranes; read-out: 5-HT6 Binding Ki

T1 sequence (P50406 whole entry): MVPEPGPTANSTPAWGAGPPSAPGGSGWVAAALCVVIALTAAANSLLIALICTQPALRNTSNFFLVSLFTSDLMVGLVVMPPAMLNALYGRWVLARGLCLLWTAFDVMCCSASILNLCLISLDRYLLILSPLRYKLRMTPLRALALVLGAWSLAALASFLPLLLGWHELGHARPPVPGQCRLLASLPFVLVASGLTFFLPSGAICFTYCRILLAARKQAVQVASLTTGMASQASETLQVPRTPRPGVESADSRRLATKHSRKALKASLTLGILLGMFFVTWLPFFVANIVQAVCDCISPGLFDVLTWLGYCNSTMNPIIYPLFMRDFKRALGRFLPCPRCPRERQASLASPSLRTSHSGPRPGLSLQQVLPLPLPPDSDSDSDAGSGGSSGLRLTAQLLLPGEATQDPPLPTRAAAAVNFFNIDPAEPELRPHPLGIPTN

pKi	SMILES
8.80	CN(C)CC1Cn2nc(S(=O)(=O)c3cccc4ccccc34)c3cccc(c32)O1 (stereo not drawn) [Example 6, N,N-dimethyl-1-[6-(1-naphthylsulfonyl)-2,3-dihydro[1,4]oxazino[2,3,4-hi]indazol-2-yl]methanamine Hydrochloride]
6.80	O=S(=O)(c1cccc2ccccc12)c1nn2c3c(cccc13)OC(CN1CCCCC1)C2 (stereo not drawn) [Example 8, 6-(1-Naphthylsulfonyl)-2-(piperidin-1-1ylmethyl)-2,3-dihydro[1,4]oxazino[2,3,4-hi]indazole Hydrochloride]

SMILES	pKi
O=S(=O)(c1cccc2ccccc12)c1nn2c3c(cccc13)OC(CN1CCCC1)C2 (stereo not drawn) [Example 7, 6-(1-Naphthylsulfonyl)-2-(Pyrrolidin-1-1ylmethyl)-2,3-dihydro[1,4]oxazino[2,3,4-hi]indazole Hydrochloride]	8.52
